Columns and labels:
S. aureus = assay: MIC by broth dilution, S. aureus; format: cell-based; details: Staphylococcus aureus; Mueller-Hinton broth, overnight 37° C.; Table 1; read-out: MIC (μg/mL) S. aureus
Description: (§1) The antibacterial efficacy of the ammonium compounds was assessed. Minimum inhibitory concentrations (MICs) were determined by broth dilution method. Dilutions of each compound, ranging from 1 μg/mL to 256 μg/mL (final concentrations) were prepared in Mueller-Hinton broth. Compound dilutions were added to wells of a 96-well plate, with the concentration of the compound increasing 2-fold by row. Each well contained 5×10^5 CFU/ml of target bacterium in a total volume of 100 μl. Plates were incubated overnight at 37° C. The following day, plates were evaluated for a visual change in growth to determine the MIC. The concentration value corresponding to the first row that no longer had visible bacterial growth, as evaluated by turbidity in the wells, was recorded as the MIC. MIC values were representative of at least biological duplicates, each made up of technical triplicates. The antibacterial efficacy of ammonium compounds in the presence of human plasma was assessed. Minimum inhibitory concentrations (MICs) were determined by broth dilution method. Dilutions of each compound, ranging from 1 μg/mL to 256 μg/mL (final concentrations) were prepared in Mueller-Hinton broth. For the plasma containing samples, compound dilutions were made in Mueller-Hinton broth and supplemented with 5% (final %) human plasma (esterases). Compound dilutions were added to wells of a 96-well plate, with the concentration of the compound increasing 2-fold by row. Each well contained 5×10^5 CFU/mL of target bacterium in a total volume of 100 μL. Plates were incubated overnight at 37° C. The following day, plates were evaluated for a visual change in growth to determine the MIC. The concentration value corresponding to the first row that no longer had visible bacterial growth, as evaluated by turbidity in the wells, was recorded as the MIC. MIC values were representative of at least biological duplicates, each made up of technical triplicates.

A. baumannii = assay: MIC by broth dilution, A. baumannii; format: cell-based; details: Acinetobacter baumannii; Mueller-Hinton broth, overnight 37° C.; Table 1; read-out: MIC (μg/mL) A. baumannii
Description: as §1

Structure (SMILES) | MIC (S. aureus) | MIC (A. baumannii)
CCCCCCCCOc1ccccc1C(=O)Nc1ccc(C(=O)OCC[N+](CC)(CC)Cc2ccc(C(F)(F)F)cc2)cc1.[Br-] [Compound 41, N,N-Diethyl-2-((4-(2-(octyloxy)benzamido)benzoyl)oxy)-N-(4-(trifluoromethyl)-benzyl)ethan-1-aminium bromide] | < 3 µg/mL | > 30 µg/mL
CCCCCCCCOc1ccccc1C(=O)Nc1ccc(C(=O)OCC[N+](CC)(CC)Cc2cccc(F)c2)cc1.[Br-] [Compound 42, N,N-Diethyl-N-(3-fluorobenzyl)-2-((4-(2-(octyloxy)benzamido)benzoyl)oxy)ethan-1-aminium bromide] | < 3 µg/mL | 3 to 30 µg/mL
CCCCCCCCOc1ccccc1C(=O)Nc1ccc(C(=O)OCC[N+](CC)(CC)Cc2cccc(F)c2F)cc1.[Br-] [Compound 43, N,N-Diethyl-N-(2,3-difluorobenzyl)-2-((4-(2-(octyloxy)benzamido)benzoyl)oxy)-ethan-1-aminium bromide] | < 3 µg/mL | 3 to 30 µg/mL
CCCCCCCCOc1ccccc1C(=O)Nc1ccc(C(=O)OCC[N+](CC)(CC)CCCCc2ccccc2)cc1.[Br-] [Compound 44, N,N-Diethyl-N-(2-((4-(2-(octyloxy)benzamido)benzoyl)oxy)ethyl)-4-phenylbutan-1-aminium bromide] | < 3 µg/mL | 3 to 30 µg/mL
CCCCCCCCOc1ccccc1C(=O)Nc1ccc(C(=O)OCCC[N+](C)(CC)CC)cc1.[I-] [Compound 45, N,N-Diethyl-N-methyl-3-((4-(2-(octyloxy)benzamido)benzoyl)oxy)propan-1-aminium iodide] | 3 to 30 µg/mL | 3 to 30 µg/mL
CCCCCCCCOc1ccccc1C(=O)Nc1ccc(C(=O)OCCCC[N+](C)(C)C)cc1.[I-] [Compound 46, N,N,N-Trimethyl-4-((4-(2-(octyloxy)benzamido)benzoyl)oxy)butan-1-aminium iodide] | 3 to 30 µg/mL | > 30 µg/mL
CCCCCCCCOc1ccccc1C(=O)Nc1ccc(C(=O)OCC[N+](CC)(CC)CCC(C)(C)C)cc1.[Br-] [Compound 47, N,N-Diethyl-3,3-dimethyl-N-(2-((4-(2-(octyloxy)benzamido)benzoyl)oxy)ethyl)-butan-1-aminium bromide] | < 3 µg/mL | 3 to 30 µg/mL
CCCCCCCCCC[N+](CC)(CC)CCOC(=O)c1ccc(NC(=O)c2ccccc2OCCCCCCCC)cc1.[Br-] [Compound 48, N,N-Diethyl-N-(2-((4-(2-(octyloxy)benzamido)benzoyl)oxy)ethyl)decan-1-aminium bromide] | < 3 µg/mL | > 30 µg/mL
CCCCCCCCCCC[N+](CC)(CC)CCOC(=O)c1ccc(NC(=O)c2ccccc2OCCCCCCCC)cc1.[Br-] [Compound 49, N,N-Diethyl-N-(2-((4-(2-(octyloxy)benzamido)benzoyl)oxy)ethyl)undecan-1-aminium bromide] | < 3 µg/mL | > 30 µg/mL
CCCCCCCCOc1ccccc1C(=O)Nc1ccc(C(=O)OCC[N+](CC)(CC)Cc2cccc(OC)c2)cc1.[Br-] [Compound 50, N,N-Diethyl-N-(3-methoxybenzyl)-2-((4-(2-(octyloxy)benzamido)benzoyl)oxy)-ethan-1-aminium bromide] | < 3 µg/mL | 3 to 30 µg/mL
CCCCCCCCOc1ccccc1C(=O)Nc1ccc(C(=O)OCC[N+](CC)(CC)Cc2ccc(C(=O)OC)cc2)cc1.[Br-] [Compound 51, N,N-Diethyl-N-(4-(methoxycarbonyl)benzyl)-2-((4-(2-(octyloxy)benzamido)-benzoyl)oxy)ethan-1-aminium bromide] | < 3 µg/mL | > 30 µg/mL
CCCCCCCCOc1ccccc1C(=O)Nc1ccc(C(=O)OCC[N+]2(C)CCCC2)cc1.[Br-] [Compound 52, 1-Methyl-1-(2-((4-(2-(octyloxy)benzamido)benzoyl)oxy)ethyl)pyrrolidin-1-ium bromide] | 3 to 30 µg/mL | > 30 µg/mL
CCCCCCCCOc1ccccc1C(=O)Nc1ccc(C(=O)OC2CC[N+](C)(CC)CC2)cc1.[Br-] (stereo not drawn) [Compound 53, 1-Ethyl-1-methyl-4-((4-(2-(octyloxy)benzamido)benzoyl)oxy)piperidin-1-ium bromide] | 3 to 30 µg/mL | > 30 µg/mL
CCCCCCCCOc1ccccc1C(=O)Nc1ccc(C(=O)N2CC[N+](C)(CC)CC2)cc1.[Br-] [Compound 54, 1-Ethyl-1-methyl-4-(4-(2-(octyloxy)benzamido)benzoyl)piperazin-1-ium bromide] | > 30 µg/mL | > 30 µg/mL
CCCCCCCCOc1ccccc1C(=O)Nc1ccc(C(=O)N(C)CC[N+](C)(CC)CC)cc1.[Br-] [Compound 55, N,N-Diethyl-N-methyl-2-(N-methyl-4-(2-(octyloxy)benzamido)benzamido)ethan-1-aminium bromide] | > 30 µg/mL | > 30 µg/mL
CCCCCCCCOc1ccccc1C(=O)Nc1ccc(C(=O)OCC[N+]2(CCC)CCCC2)cc1.[Br-] [Compound 56, 1-(2-((4-(2-(Octyloxy)benzamido)benzoyl)oxy)ethyl)-1-propylpyrrolidin-1-ium bromide] | < 3 µg/mL | 3 to 30 µg/mL
CCCCCCCCOc1ccccc1C(=O)Nc1ccc(C(=O)OC2CC[N+](CC)(CCC)CC2)cc1.[Br-] (stereo not drawn) [Compound 57, 1-Ethyl-4-((4-(2-(octyloxy)benzamido)benzoyl)oxy)-1-propylpiperidin-1-ium bromide] | 3 to 30 µg/mL | 3 to 30 µg/mL
CCCCCCCCOc1ccccc1C(=O)Nc1ccc(C(=O)N(C)CC[N+](CC)(CC)CCC)cc1.[Br-] [Compound 59, N,N-Diethyl-N-(2-(N-methyl-4-(2-(octyloxy)benzamido)benzamido)ethyl)propan-1-aminium bromide] | 3 to 30 µg/mL | > 30 µg/mL
CCCCCCCCOc1ccccc1C(=O)Nc1ccc(C(=O)OCC[N+](CC)(CC)CC2CC2)cc1.[Br-] [Compound 60, N-(Cyclopropylmethyl)-N,N-diethyl-2-((4-(2-(octyloxy)benzamido)benzoyl)oxy)-ethan-1-aminium bromide] | 3 to 30 µg/mL | 3 to 30 µg/mL
CCCCCCCCOc1ccccc1C(=O)Nc1ccc(C(=O)OCC[N+](CC)(CC)CC2CCCC2)cc1.[Br-] [Compound 61, N-(Cyclopentylmethyl)-N,N-diethyl-2-((4-(2-(octyloxy)benzamido)benzoyl)oxy)-ethan-1-aminium bromide] | < 3 µg/mL | 3 to 30 µg/mL
CCCCCCCCOc1ccccc1C(=O)Nc1ccc(C(=O)OCC[N+](CC)(CC)CC2CCCCC2)cc1.[Br-] [Compound 62, N-(Cyclohexylmethyl)-N,N-diethyl-2-((4-(2-(octyloxy)benzamido)benzoyl)oxy)-ethan-1-aminium bromide] | < 3 µg/mL | 3 to 30 µg/mL
CCCCCCCCOc1ccccc1C(=O)Nc1ccc(C(=O)OCC[N+](CC)(CC)CCC(C)C)cc1.[Br-] [Compound 63, N,N-Diethyl-3-methyl-N-(2-((4-(2-(octyloxy)benzamido)benzoyl)oxy)ethyl)butan-1-aminium bromide] | < 3 µg/mL | 3 to 30 µg/mL
CCCCCOc1ccccc1C(=O)Nc1ccc(C(=O)OCC[N+](CC)(CC)CCC)cc1.[Br-] [Compound 64, N,N-Diethyl-N-(2-((4-(2-(pentyloxy)benzamido)benzoyl)oxy)ethyl)propan-1-aminium bromide] | 3 to 30 µg/mL | > 30 µg/mL
CCCCCOc1ccccc1C(=O)Nc1ccc(C(=O)OCC[N+](CC)(CC)CCCCC)cc1.[Br-] [Compound 65, N,N-Diethyl-N-(2-((4-(2-(pentyloxy)benzamido)benzoyl)oxy)ethyl)pentan-1-aminium bromide] | 3 to 30 µg/mL | > 30 µg/mL

From US11952330B2, “Antibiotic ammonium compounds and methods for the treatment of bacterial infections” (priority 2019, dated 2024)
